# Measurements: article PMC12095868, “The Fsr transporter of Sinorhizobium meliloti contributes to antimicrobial resistance and symbiosis with alfalfa” (Microbiology, 2025)
# Molecular target: T1, Fsr (Sinorhizobium meliloti, UniProt Q92RK8)
# T1 construct: native full-length protein in S. meliloti 1021 cells, compared with fsr::loxSp null mutant; 398 residues; MFS membrane transporter
# Experiment: fluorometric accumulation and efflux assay, wild-type versus fsr null mutant cells
# Type: cell-based
# Conditions: whole cells, 10 ug/ml EtBr, 0.4% glucose as energy source; CCCP 25 ug/ml as decoupler in parallel; proton-dependent efflux
# T1 sequence (Q92RK8 entry or part of it): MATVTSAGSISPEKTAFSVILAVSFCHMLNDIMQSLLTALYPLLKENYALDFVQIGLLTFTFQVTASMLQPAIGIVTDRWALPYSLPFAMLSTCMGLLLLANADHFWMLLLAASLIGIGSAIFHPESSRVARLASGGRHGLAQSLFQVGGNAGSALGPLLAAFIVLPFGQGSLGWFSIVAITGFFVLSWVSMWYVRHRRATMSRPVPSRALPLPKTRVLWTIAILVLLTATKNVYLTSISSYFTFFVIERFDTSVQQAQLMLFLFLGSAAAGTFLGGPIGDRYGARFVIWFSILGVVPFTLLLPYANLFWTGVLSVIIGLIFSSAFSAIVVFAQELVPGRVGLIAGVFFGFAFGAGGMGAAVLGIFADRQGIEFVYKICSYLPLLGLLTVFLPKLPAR
structure (smiles),measurement,value
"CC[n+]1c(-c2ccccc2)c2cc(N)ccc2c2ccc(N)cc21 [EtBr, ethidium bromide]","fluorometric accumulation and efflux assay, wild-type versus fsr null mutant cel",The rate and extent of EtBr efflux were higher in the wild type
